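Compound exposure: 48 hours, 5 concentrations, 96-well plates. GI50: concentration for 50% inhibition of growth.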 Activity calls are given as the source filed them. Rule as the data show it: active = GI50 up to about 1.1 µM and inactive = higher.
What was measured:
Assay in all cases: NCI anticancer screen, dose series, 48 h
[1] = tested on: HCT-116
[2] = tested on: MDA-MB-435
[3] = tested on: MDA-N
[4] = tested on: EKVX
[5] = tested on: PC-3
[6] = tested on: SF-295
[7] = tested on: BT-549
[8] = tested on: OVCAR-5
[9] = tested on: UACC-62
[10] = tested on: NCI-H460
[11] = tested on: K562
[12] = tested on: T47D
[13] = tested on: M14
[14] = tested on: SR
[15] = tested on: 786-0
[16] = tested on: LOX IMVI
[17] = tested on: IGROV-1
[18] = tested on: TK-10
[19] = tested on: HOP-92
[20] = tested on: RXF 393

SMILES | GI50 [1] | GI50 [2] | GI50 [3] | GI50 [4] | GI50 [5] | GI50 [6] | GI50 [7] | GI50 [8] | GI50 [9] | GI50 [10] | GI50 [11] | GI50 [12] | GI50 [13] | GI50 [14] | GI50 [15] | GI50 [16] | GI50 [17] | GI50 [18] | GI50 [19] | GI50 [20]
O=[N+]([O-])c1ccc2ncccc2c1CCc1c([N+](=O)[O-])ccc2ncccc12 | > 100 µM (inactive) | > 100 µM (inactive) | > 100 µM (inactive) | > 100 µM (inactive) | > 100 µM (inactive) | > 100 µM (inactive) | > 100 µM (inactive) | > 100 µM (inactive) | > 100 µM (inactive) | > 100 µM (inactive) | > 100 µM (inactive) | > 100 µM (inactive) | > 100 µM (inactive) | > 100 µM (inactive) | > 100 µM (inactive) | > 100 µM (inactive) | > 100 µM (inactive) | > 100 µM (inactive) | > 35.3 µM (inactive) | > 100 µM (inactive)
CC(C)c1ccc(/C(C(=O)O)=C(\O)C(=O)O)cc1 | > 100 µM (inactive) | > 100 µM (inactive) | > 100 µM (inactive) | > 100 µM (inactive) | > 100 µM (inactive) | > 100 µM (inactive) | > 100 µM (inactive) | > 100 µM (inactive) | > 100 µM (inactive) | > 100 µM (inactive) | > 100 µM (inactive) | > 100 µM (inactive) | > 100 µM (inactive) | > 100 µM (inactive) | > 100 µM (inactive) | > 100 µM (inactive) | > 100 µM (inactive) | > 100 µM (inactive) | > 100 µM (inactive) | > 100 µM (inactive)
c1ccc(-c2cn3c(nc4ccccc43)c(-c3ccccc3)n2)cc1 | > 86.9 µM (inactive) | > 87.7 µM (inactive) | > 31.6 µM (inactive) | > 100 µM (inactive) | > 57.7 µM (inactive) | 14.8 µM (inactive) | 29.4 µM (inactive) | > 54.2 µM (inactive) | 12.4 µM (inactive) | 58.1 µM (inactive) | > 100 µM (inactive) | > 39.6 µM (inactive) | > 100 µM (inactive) | > 100 µM (inactive) | 16.1 µM (inactive) | 81.8 µM (inactive) | 42.9 µM (inactive) | > 59.6 µM (inactive) | 16.9 µM (inactive) | > 38 µM (inactive)
COc1cc2c(c(OC)c1OC)-c1ccc(SC)c(=O)cc1C(NC(=O)c1ccccc1)CC2 (stereo not drawn) | < 0.01 µM (active) | < 0.01 µM (active) | < 0.01 µM (active) | 21.2 µM (inactive) | < 0.01 µM (active) | < 0.01 µM (active) | 15.6 µM (inactive) | 0.303 µM (active) | < 0.01 µM (active) | < 0.01 µM (active) | < 0.01 µM (active) | 86.3 µM (inactive) | < 0.01 µM (active) | < 0.0137 µM (active) | < 0.01 µM (active) | < 0.01 µM (active) | < 0.01 µM (active) | 0.24 µM (active) | 0.0119 µM (active) | 0.0444 µM (active)
O=C(N/N=C/c1ccc2c(c1)CCC2)c1ccccc1O | 19.4 µM (inactive) | 21.5 µM (inactive) | 19.4 µM (inactive) | 27.1 µM (inactive) | 19.7 µM (inactive) | 16.4 µM (inactive) | 19.3 µM (inactive) | 32.5 µM (inactive) | 22 µM (inactive) | 22.1 µM (inactive) | 38.9 µM (inactive) | 25.5 µM (inactive) | 30 µM (inactive) | 30.9 µM (inactive) | 18.5 µM (inactive) | 27.8 µM (inactive) | 17.8 µM (inactive) | 23 µM (inactive) | 24.5 µM (inactive) | 23 µM (inactive)
O=[N+]([O-])c1cc(-c2nc(-c3ccccc3)c(-c3ccccc3)[nH]2)c(O)c([N+](=O)[O-])c1 | 17.7 µM (inactive) | 32.6 µM (inactive) | 31.1 µM (inactive) | 23.4 µM (inactive) | 20.3 µM (inactive) | 22.3 µM (inactive) | 20 µM (inactive) | 23.2 µM (inactive) | 17.5 µM (inactive) | 21.5 µM (inactive) | 30.8 µM (inactive) | 20.3 µM (inactive) | 21.1 µM (inactive) | 20.8 µM (inactive) | 21.6 µM (inactive) | 23.6 µM (inactive) | 32.7 µM (inactive) | 28.5 µM (inactive) | 19.8 µM (inactive) | 17.4 µM (inactive)
O=c1[nH]c2ccc(Cl)cc2c2oc(-c3ccccc3)nc12 | 16.4 µM (inactive) | 51.6 µM (inactive) | 45.7 µM (inactive) | 30.5 µM (inactive) | 29.9 µM (inactive) | 21.6 µM (inactive) | > 100 µM (inactive) | 52.1 µM (inactive) | 70.5 µM (inactive) | 20 µM (inactive) | 72.6 µM (inactive) | 19.2 µM (inactive) | 88.5 µM (inactive) | 21 µM (inactive) | 16 µM (inactive) | 32.5 µM (inactive) | 29.1 µM (inactive) | 35.5 µM (inactive) | 28.4 µM (inactive) | 14.1 µM (inactive)
C=CCN(CCNS(=O)(=O)c1ccc(C)cc1)S(=O)(=O)c1ccc(C)cc1 | 34.2 µM (inactive) | > 57.9 µM (inactive) | 46.3 µM (inactive) | 31.9 µM (inactive) | > 48 µM (inactive) | 14 µM (inactive) | 22.4 µM (inactive) | 58.2 µM (inactive) | 73.6 µM (inactive) | 9.46 µM (inactive) | > 54.1 µM (inactive) | > 51.1 µM (inactive) | 14 µM (inactive) | > 100 µM (inactive) | 61.8 µM (inactive) | 17.3 µM (inactive) | 76.2 µM (inactive) | > 55.2 µM (inactive) | > 69.3 µM (inactive) | > 67.6 µM (inactive)
CCOC(=O)NC(Nc1cccc(C(F)(F)F)c1)(C(F)(F)F)C(F)(F)F | > 100 µM (inactive) | > 100 µM (inactive) | > 100 µM (inactive) | > 100 µM (inactive) | > 100 µM (inactive) | > 100 µM (inactive) | > 100 µM (inactive) | > 100 µM (inactive) | > 100 µM (inactive) | > 100 µM (inactive) | > 100 µM (inactive) | > 100 µM (inactive) | > 100 µM (inactive) | > 100 µM (inactive) | > 100 µM (inactive) | > 100 µM (inactive) | > 100 µM (inactive) | > 100 µM (inactive) | > 100 µM (inactive) | > 100 µM (inactive)
CC1(C)CCCCCC(O)C(O)CCC(C)(C)C1=O (stereo not drawn) | > 100 µM (inactive) | > 100 µM (inactive) | > 100 µM (inactive) | > 100 µM (inactive) | > 100 µM (inactive) | > 100 µM (inactive) | > 100 µM (inactive) | > 100 µM (inactive) | > 100 µM (inactive) | > 100 µM (inactive) | > 100 µM (inactive) | > 100 µM (inactive) | > 100 µM (inactive) | > 100 µM (inactive) | > 100 µM (inactive) | > 100 µM (inactive) | > 100 µM (inactive) | > 100 µM (inactive) | > 100 µM (inactive) | > 100 µM (inactive)
CC(C)(Oc1ccc(Cl)cc1)C(=O)N(C(=O)N1CCN(c2ccccc2)CC1)c1ccccc1 | 4.06 µM (inactive) | 16.2 µM (inactive) | 62.8 µM (inactive) | 5.83 µM (inactive) | 4.78 µM (inactive) | 33.2 µM (inactive) | > 100 µM (inactive) | > 100 µM (inactive) | 5.83 µM (inactive) | 3.75 µM (inactive) | 3.96 µM (inactive) | 5.48 µM (inactive) | 45.7 µM (inactive) | 3.76 µM (inactive) | 28.4 µM (inactive) | > 100 µM (inactive) | – | 68.5 µM (inactive) | > 100 µM (inactive) | > 100 µM (inactive)
O=C(NCCc1ccccn1)c1ccc2cc(C(=O)N3CC(CCl)c4ccc([N+](=O)[O-])cc43)[nH]c2c1 (stereo not drawn) | > 70.3 µM (inactive) | > 100 µM (inactive) | > 100 µM (inactive) | 47.4 µM (inactive) | 44.6 µM (inactive) | > 35.3 µM (inactive) | > 100 µM (inactive) | 97.9 µM (inactive) | 8.99 µM (inactive) | 22.7 µM (inactive) | > 100 µM (inactive) | > 100 µM (inactive) | > 100 µM (inactive) | > 100 µM (inactive) | 9.64 µM (inactive) | > 100 µM (inactive) | 53.6 µM (inactive) | 20.7 µM (inactive) | 9.46 µM (inactive) | 7.66 µM (inactive)
C=C1CC[C@@]2(C)[C@@H]([C@@H]1C)[C@H]1CC[C@@H]3[C@@]4(C)CC[C@H](O)C(C)(C)[C@@H]4CC[C@@]3(C)[C@]1(C)C[C@@H]2O | 2.99 µM (inactive) | 4.22 µM (inactive) | 8.53 µM (inactive) | 3 µM (inactive) | 2.86 µM (inactive) | 3.49 µM (inactive) | 10 µM (inactive) | 4.25 µM (inactive) | 7.45 µM (inactive) | 2.11 µM (inactive) | – | 2.55 µM (inactive) | 4.66 µM (inactive) | > 100 µM (inactive) | 2.7 µM (inactive) | 1.99 µM (inactive) | 2 µM (inactive) | 5.62 µM (inactive) | 1.99 µM (inactive) | 1.77 µM (inactive)
N=C(N)NCCCC(=O)O | > 100 µM (inactive) | > 100 µM (inactive) | > 100 µM (inactive) | > 100 µM (inactive) | > 100 µM (inactive) | > 100 µM (inactive) | > 100 µM (inactive) | > 100 µM (inactive) | > 100 µM (inactive) | > 100 µM (inactive) | > 100 µM (inactive) | > 100 µM (inactive) | > 100 µM (inactive) | > 100 µM (inactive) | > 100 µM (inactive) | > 100 µM (inactive) | > 100 µM (inactive) | > 100 µM (inactive) | > 100 µM (inactive) | > 100 µM (inactive)

— ChEMBL document CHEMBL1201862, “PubChem BioAssay data set” (2004)
